Holding throughout (format): in vivo
Assay [1] has as its system Plasmopara viticola. The assay can be described thus: Test B: grape downy mildew, spray 24 h after inoculation (disease rating, 100 = 100% disease control). The essentials: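 Grape seedlings were inoculated with Plasmopara viticola and held 24 h saturated at 20 °C, then sprayed to run-off with compound suspension (acetone/water with 250 ppm Trem 014; 200 ppm ≈ 500 g/ha). After 5 days at 20 °C and 24 h saturation, disease was rated from 0 to 100% control versus untreated.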

Assay [2] deals with Erysiphe graminis f. sp. tritici. The assay can be described thus: Test E: wheat powdery mildew, spray the day before inoculation (disease rating, 100 = 100% disease control). The essentials:
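Wheat seedlings sprayed to run-off with compound suspended in acetone/water 50/50 with 250 ppm Trem 014 (200 ppm equivalent to 500 g/ha); inoculated next day with Erysiphe graminis f. sp. tritici spore dust. Kept 7 days at 20° C, then rated 0–100% disease control versus controls.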

The test system of assay [3] is Phytophthora infestans. In words: whole plant or invertebrate. As to conditions: for Test D disease rating (100 = 100% disease control, 0 = no disease control): tomato late blight.
Assay [4] deals with Phytophthora infestans. The assay can be described thus: whole plant or invertebrate. As to conditions: for Test C disease rating (100 = 100% disease control, 0 = no disease control): tomato late blight.
Where [5] appears, read: sprayed 24 h after inoculation, unmarked compounds (no asterisk, not 40 or 10 ppm).
Setting [6] is: sprayed the day before inoculation, 7 days at 20° C., unmarked compounds (no asterisk, not 40 or 10 ppm).
[7] abbreviates: sprayed 17 h after inoculation, unmarked compounds (no asterisk, not 40 or 10 ppm).
Setting [8] is: sprayed the day before inoculation, unmarked compounds (no asterisk, not 40 or 10 ppm).
[9] abbreviates: spray 24 h after inoculation, compounds without asterisk (not 40 or 10 ppm).
Setting [10] is: spray the day before inoculation, compounds without asterisk (not 40 or 10 ppm).
[11] abbreviates: spray 17 h after inoculation, compounds without asterisk (not 40 or 10 ppm).
Where [12] appears, read: spray the day before inoculation, tested at 10 ppm.

Where two headings read alike, the source gives them in different places.

With `C[C@@H](NC(=O)c1csc(C2CCN(C(=O)Cc3cccc(Br)c3)CC2)n1)c1ccc(Cl)cc1` [compound 280], the “Test B disease rating (100 = 100% disease control, 0 = no disease control)” value in assay [1] (setting [5]) was 0. In addition, the “Test E disease rating (100 = 100% disease control, 0 = no disease control)” value in assay [2] (setting [6]) is reported as 0. Further, the “Test D disease rating (100 = 100% disease control, 0 = no disease control)” value in assay [3] (setting [7]) is 0. In assay [4] (setting [8]), the “Test C disease rating (100 = 100% disease control, 0 = no disease control)” value turned out to be 24.

For the molecule `COc1cc2c(cc1OC)CN(C(=O)c1csc(C3CCN(C(=O)Cn4nc(C(F)(F)F)cc4C)CC3)n1)CC2` [compound 297], in assay [1] (setting [5]), the “Test B disease rating (100 = 100% disease control, 0 = no disease control)” value was 39. Further, in assay [2] (setting [6]), the “Test E disease rating (100 = 100% disease control, 0 = no disease control)” value was 0. Besides, in assay [3] (setting [7]), the “Test D disease rating (100 = 100% disease control, 0 = no disease control)” value came to 33. The “Test C disease rating (100 = 100% disease control, 0 = no disease control)” value in assay [4] (setting [8]) is listed as 63.

Consider `Cc1ccc(C)c(CC(=O)N2CCC(c3nc(C(=O)N(C)[C@H](C)c4ncc(Cl)cc4Cl)cs3)CC2)c1` [compound 111], for which the “Test B disease rating (100 = 100% disease control, 0 = no disease control)” value in assay [1] (setting [9]) amounted to 96%. The “Test E disease rating (100 = 100% disease control, 0 = no disease control)” value in assay [2] (setting [10]) is on record as 98%. In addition, the “Test D disease rating (100 = 100% disease control, 0 = no disease control)” value in assay [3] (setting [11]) is given as 37%. In assay [4] (setting [10]), the “Test C disease rating (100 = 100% disease control, 0 = no disease control)” value turned out to be 99%.

As to `Cc1cc(C(F)(F)F)nn1CC(=O)N1CCC(c2nc(C(=O)N(C)C3c4ccccc4CC3(C)C)cs2)CC1` (stereo not drawn) [Compound 222, N-(2,3-dihydro-2,2-dimethyl-1H-inden-1-yl)-N-methyl-2-[1-[[5-methyl-3-(trifluoromethyl)-1H-pyrazol-1-yl]acetyl]-4-piperidinyl]-4-thiazolecarboxamide], the pest or weed control at 40 ppm in assay [1] (Plasmopara viticola, 144 h, spray 24 h after inoculation, tested at 40 ppm, read-out: Test B disease rating (100 = 100% disease control, 0 = no disease control)) was 100%; in assay [2] (Blumeria graminis, topical, 168 h, spray the day before inoculation, tested at 40 ppm, read-out: Test E disease rating (100 = 100% disease control, 0 = no disease control)), 0%; in assay [3] (Phytophthora infestans, in Solanum lycopersicum, topical, 96 h, read-out: Test D disease rating (100 = 100% disease control, 0 = no disease control)), 99%; in assay [4] (Phytophthora infestans, in Solanum lycopersicum, 144 h, read-out: Test C disease rating (100 = 100% disease control, 0 = no disease control)), 100%.

In the case of `Cc1cc(C(F)(F)F)nn1CC(=O)N1CCC(c2cc(C(=O)N(C)[C@@H]3CCCc4ccccc43)on2)CC1` [compound 203], the “Test B disease rating (100 = 100% disease control, 0 = no disease control)” value in assay [1] (setting [9]) is on record as 94%. In addition, the “Test E disease rating (100 = 100% disease control, 0 = no disease control)” value in assay [2] (setting [10]) was 0%. In assay [3] (setting [11]), the “Test D disease rating (100 = 100% disease control, 0 = no disease control)” value was 99%. In addition, the “Test C disease rating (100 = 100% disease control, 0 = no disease control)” value in assay [4] (setting [10]) was 100%.

In the case of `Cc1cc(C(F)(F)F)nn1CC(=O)N1CCC(c2nc(C(=O)N3Cc4ccccc4C3C)cs2)CC1` (stereo not drawn) [compound 298], the “Test B disease rating (100 = 100% disease control, 0 = no disease control)” value in assay [1] (sprayed 24 h after inoculation, tested at 10 ppm (**)) was 57. The “Test E disease rating (100 = 100% disease control, 0 = no disease control)” value in assay [2] (sprayed the day before inoculation, 7 days at 20° C., tested at 10 ppm (**)) is recorded as 0. In addition, in assay [3] (sprayed 17 h after inoculation, tested at 10 ppm (**)), the “Test D disease rating (100 = 100% disease control, 0 = no disease control)” value amounted to 0. The “Test C disease rating (100 = 100% disease control, 0 = no disease control)” value in assay [4] (sprayed the day before inoculation, tested at 10 ppm (**)) turned out to be 80.

For `Cc1ccc(C)c(CC(=O)N2CCC(c3nc(C(=O)N(C)[C@@H]4CCc5ccccc54)cs3)CC2)c1` [compound 130], in assay [1] (setting [9]), the “Test B disease rating (100 = 100% disease control, 0 = no disease control)” value came to 99%. Besides, the “Test E disease rating (100 = 100% disease control, 0 = no disease control)” value in assay [2] (setting [10]) was determined as 0%. Also, the “Test D disease rating (100 = 100% disease control, 0 = no disease control)” value in assay [3] (setting [11]) came out at 100%. Further, the “Test C disease rating (100 = 100% disease control, 0 = no disease control)” value in assay [4] (setting [10]) is 54%.

Regarding `Cc1cc(C(F)(F)F)nn1CC(=O)N1C2CCC1CC(c1nc(C(=O)N(C)[C@@H]3CCCc4ccccc43)cs1)C2` (stereo partly drawn) [compound 316], the “Test B disease rating (100 = 100% disease control, 0 = no disease control)” value in assay [1] (setting [5]) came out at 97. Moreover, the “Test E disease rating (100 = 100% disease control, 0 = no disease control)” value in assay [2] (setting [6]) is given as 0. Besides, the “Test D disease rating (100 = 100% disease control, 0 = no disease control)” value in assay [3] (setting [7]) amounted to 97. In assay [4] (setting [8]), the “Test C disease rating (100 = 100% disease control, 0 = no disease control)” value is reported as 100.

Turning to `Cc1cc(C(F)(F)F)nn1CC(=O)N1CCC(c2nc(C(=O)N(C)C(C)c3ccccc3Cl)cs2)CC1` (stereo not drawn) [compound 251], the “Test B disease rating (100 = 100% disease control, 0 = no disease control)” value in assay [1] (spray 24 h after inoculation, tested at 10 ppm) was 100%. Besides, the “Test E disease rating (100 = 100% disease control, 0 = no disease control)” value in assay [2] (setting [12]) was determined as 0%. Also, the “Test D disease rating (100 = 100% disease control, 0 = no disease control)” value in assay [3] (spray 17 h after inoculation, tested at 10 ppm) stood at 97%. In addition, the “Test C disease rating (100 = 100% disease control, 0 = no disease control)” value in assay [4] (setting [12]) is 100%.

(Values after patent US8586611B2 (priority 2005, dated 2013).)
